# From PubChem BioAssay (NCI)
#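 Tested at 5 concentrations; 48 h exposure; 96-well plates; endpoints linearly interpolated, else capped at highest concentration. The concentration for 50% growth inhibition is given as GI50. The concentration for full growth arrest is given as TGI.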
# System: RXF 393 renal
# Test: inhibition of tumour cell growth, NCI panel, 48 h
Compound,TGI [µM],GI50 [µM]
CC(O)(C(=O)N(O)c1ccc(Cl)cc1)c1ccc(Cl)cc1 (stereo not drawn),95.2,
CCOP(=O)(OCC)c1cc(-c2ccccc2)ccc1N,> 100,
CC1(C)[C@@H]2C[C@H]1c1cnc(-c3ccccn3)cc1[C@H]2C(O)[C@@H]1c2cc(-c3ccccn3)ncc2[C@H]2C[C@@H]1C2(C)C (stereo partly drawn),1.62,
CC1(C)OC(CCO)CN1C(=O)OCc1ccccc1 (stereo not drawn),> 100,
COc1ccc(N2C(=O)C3c4[nH]c5ccccc5c4C4C(C)CCCC4C3C2=O)cc1 (stereo not drawn),> 72.6,
CCOC(=O)C1=C(C)NC(=O)N([N+](=O)[O-])C1c1ccccc1C(F)(F)F (stereo not drawn),> 100,
O=c1c(Cc2ccccc2)c(-c2ccccc2)[nH]n1C1=NCCN1,> 100,
Brc1ccc2c(c1)-c1nc3c(cc1CC2)CCc1ccc(Br)cc1-3,> 100,
CCOC(=O)Cc1nn2c(=O)cc(C)nc2s1,> 100,
COP(=O)(CC(=O)C1OC(OCc2ccccc2)C(OCc2ccccc2)C(OCc2ccccc2)C1OCc1ccccc1)OC (stereo not drawn),19.4,
CN1c2ccccc2C(=O)NC12CCN(CC1COc3ccccc3O1)CC2 (stereo not drawn),> 100,
CCOC1NC(=O)c2ccccc21 (stereo not drawn),> 100,
CCN(C(=O)N[C@H](C(=O)N[C@@H](C)C(=O)OC)C(C)C)c1ccccc1,> 100,
Cc1cn(C2CC(OC(c3ccccc3)(c3ccccc3)c3ccccc3)C(COC(c3ccccc3)(c3ccccc3)c3ccccc3)O2)c(=O)[nH]c1=O (stereo not drawn),> 100,
COc1cc(CCCOC2OC(COC3OCC(O)C(O)C3O)C(O)C(O)C2O)cc2cc(-c3ccc4c(c3)OCO4)oc12 (stereo not drawn),> 114,
CCOC(=O)c1ccc(C(=O)/C(C(=O)OC(C)(C)C)=C2\CCCN2C)n1C,> 100,
O=[N+]([O-])c1ccc2nc3c(nc2c1)-c1c2ccccc2cc2cccc-3c12,63.6,
C(=N/Nc1ccc(-c2nc3ccccc3[nH]2)cc1)/c1c(-c2ccccc2)[nH]c2ccccc12,> 100,
COc1cc(/C=C/c2cc(=O)cc(/C=C/c3ccc(O)c(OC)c3)o2)ccc1O,> 55.2,
NNC(=O)c1cccc2c1Oc1ccccc1S2,> 100,
NS(=O)(=O)c1nnc(NSc2ccc([N+](=O)[O-])cc2)s1,> 100,
Nc1nc(Nc2ccc(OCc3cccc(F)c3)cc2)c2c(n1)[nH]c1ccc(O)cc12,3.55,1.78
CCOC(=O)c1csc(NC(=O)CCCC#N)n1,> 100,
COc1ccc(CCCCl)c(C2=NCCc3ccccc32)c1,> 100,
O=C(CN=C(CN(c1ccccc1)c1ccccc1)Oc1c(Cl)cc(Cl)cc1Cl)n1cnc2ccccc21,25.6,
C=C1CC=CC(C)(C)C1C/C=C(\C)C(O)CBr (stereo not drawn),> 100,
CCOC(=O)C(C)NC(=O)N(C)C12CC3CC(CC(C3)C1)C2 (stereo not drawn),> 455,
CCc1cc(=O)n(/C(C)=C/c2ccccc2)n1C,> 100,
Nc1n[nH]c2ccccc12,> 100,
N/C(CSCCSC/C(N)=N/O)=N\O,> 100,

# System: SF-295 CNS
# Test: inhibition of tumour cell growth, NCI panel, 48 h
Compound,TGI [µM],GI50 [µM]
CC(O)(C(=O)N(O)c1ccc(Cl)cc1)c1ccc(Cl)cc1 (stereo not drawn),92.4,
CCOP(=O)(OCC)c1cc(-c2ccccc2)ccc1N,> 100,
CC1(C)[C@@H]2C[C@H]1c1cnc(-c3ccccn3)cc1[C@H]2C(O)[C@@H]1c2cc(-c3ccccn3)ncc2[C@H]2C[C@@H]1C2(C)C (stereo partly drawn),11.4,
CC1(C)OC(CCO)CN1C(=O)OCc1ccccc1 (stereo not drawn),> 100,
COc1ccc(N2C(=O)C3c4[nH]c5ccccc5c4C4C(C)CCCC4C3C2=O)cc1 (stereo not drawn),> 100,
CCOC(=O)C1=C(C)NC(=O)N([N+](=O)[O-])C1c1ccccc1C(F)(F)F (stereo not drawn),> 100,
O=c1c(Cc2ccccc2)c(-c2ccccc2)[nH]n1C1=NCCN1,> 100,
Brc1ccc2c(c1)-c1nc3c(cc1CC2)CCc1ccc(Br)cc1-3,> 100,
CCOC(=O)Cc1nn2c(=O)cc(C)nc2s1,> 100,
COP(=O)(CC(=O)C1OC(OCc2ccccc2)C(OCc2ccccc2)C(OCc2ccccc2)C1OCc1ccccc1)OC (stereo not drawn),> 100,
CN1c2ccccc2C(=O)NC12CCN(CC1COc3ccccc3O1)CC2 (stereo not drawn),> 100,
CCOC1NC(=O)c2ccccc21 (stereo not drawn),> 100,
CCN(C(=O)N[C@H](C(=O)N[C@@H](C)C(=O)OC)C(C)C)c1ccccc1,> 100,
Cc1cn(C2CC(OC(c3ccccc3)(c3ccccc3)c3ccccc3)C(COC(c3ccccc3)(c3ccccc3)c3ccccc3)O2)c(=O)[nH]c1=O (stereo not drawn),> 100,
COc1cc(CCCOC2OC(COC3OCC(O)C(O)C3O)C(O)C(O)C2O)cc2cc(-c3ccc4c(c3)OCO4)oc12 (stereo not drawn),> 175,
CCOC(=O)c1ccc(C(=O)/C(C(=O)OC(C)(C)C)=C2\CCCN2C)n1C,> 100,

Compound,TGI [µM],GI50 [µM]
O=[N+]([O-])c1ccc2nc3c(nc2c1)-c1c2ccccc2cc2cccc-3c12,59.5,
C(=N/Nc1ccc(-c2nc3ccccc3[nH]2)cc1)/c1c(-c2ccccc2)[nH]c2ccccc12,12.7,
COc1cc(/C=C/c2cc(=O)cc(/C=C/c3ccc(O)c(OC)c3)o2)ccc1O,> 100,
NNC(=O)c1cccc2c1Oc1ccccc1S2,> 100,
COc1cc2c(cc1O)CC[n+]1cc3c(OC)c(OC)ccc3cc1-2,> 100,
NS(=O)(=O)c1nnc(NSc2ccc([N+](=O)[O-])cc2)s1,> 100,
Nc1nc(Nc2ccc(OCc3cccc(F)c3)cc2)c2c(n1)[nH]c1ccc(O)cc12,7.63,2.5
CCCC[C@@H]1CCN2C[C@@H](O)[C@@H](O)[C@H]2[C@@H]1O,> 100,
Cc1cc(C)nc(NS(=O)(=O)c2ccc(Nc3c4ccccc4nc4c(C(=O)NCCO)cccc34)cc2)n1,53.5,
CCOC(=O)c1csc(NC(=O)CCCC#N)n1,> 100,
COc1ccc(CCCCl)c(C2=NCCc3ccccc32)c1,> 100,
O=C(CN=C(CN(c1ccccc1)c1ccccc1)Oc1c(Cl)cc(Cl)cc1Cl)n1cnc2ccccc21,> 100,
C=C1CC=CC(C)(C)C1C/C=C(\C)C(O)CBr (stereo not drawn),> 100,
CCOC(=O)C(C)NC(=O)N(C)C12CC3CC(CC(C3)C1)C2 (stereo not drawn),> 500,
CCc1cc(=O)n(/C(C)=C/c2ccccc2)n1C,> 100,
Nc1n[nH]c2ccccc12,> 100,

# System: MCF7 breast
# Test: inhibition of tumour cell growth, NCI panel, 48 h
row,Compound,TGI [µM]
1,CC(O)(C(=O)N(O)c1ccc(Cl)cc1)c1ccc(Cl)cc1 (stereo not drawn),> 100
2,CCOP(=O)(OCC)c1cc(-c2ccccc2)ccc1N,> 100
3,CC1(C)[C@@H]2C[C@H]1c1cnc(-c3ccccn3)cc1[C@H]2C(O)[C@@H]1c2cc(-c3ccccn3)ncc2[C@H]2C[C@@H]1C2(C)C (stereo partly drawn),13.5
4,CC1(C)OC(CCO)CN1C(=O)OCc1ccccc1 (stereo not drawn),> 100
5,COc1ccc(N2C(=O)C3c4[nH]c5ccccc5c4C4C(C)CCCC4C3C2=O)cc1 (stereo not drawn),> 100
6,CCOC(=O)C1=C(C)NC(=O)N([N+](=O)[O-])C1c1ccccc1C(F)(F)F (stereo not drawn),> 100
7,O=c1c(Cc2ccccc2)c(-c2ccccc2)[nH]n1C1=NCCN1,> 100
8,Brc1ccc2c(c1)-c1nc3c(cc1CC2)CCc1ccc(Br)cc1-3,> 100
9,CCOC(=O)Cc1nn2c(=O)cc(C)nc2s1,> 100
10,COP(=O)(CC(=O)C1OC(OCc2ccccc2)C(OCc2ccccc2)C(OCc2ccccc2)C1OCc1ccccc1)OC (stereo not drawn),37.4
11,CN1c2ccccc2C(=O)NC12CCN(CC1COc3ccccc3O1)CC2 (stereo not drawn),> 100
12,CCOC1NC(=O)c2ccccc21 (stereo not drawn),> 100
13,CCN(C(=O)N[C@H](C(=O)N[C@@H](C)C(=O)OC)C(C)C)c1ccccc1,> 100
14,Cc1cn(C2CC(OC(c3ccccc3)(c3ccccc3)c3ccccc3)C(COC(c3ccccc3)(c3ccccc3)c3ccccc3)O2)c(=O)[nH]c1=O (stereo not drawn),> 100
